Results on four compounds are retold here after patent publication US20260327250A1, “3-ETHYLAMINO-INDOLE DIMERS AS SEROTONERGIC AGENTS USEFUL FOR THE TREATMENT OF DISORDERS RELATED THERETO” (MINDSET PHARMA INC., priority 2022, published 2026).

“Also recorded” adds a separate entry of the source. Structures can show the parent of a compound that is named as a salt.

Data set [1] in a line: in vitro. As to conditions: dog, plasma.
Method: (§1) The stock solution of test compound was prepared in DMSO and diluted at the final concentration of 200 μM.
(§2) • a. 2.5 μL of 200 μM or 1 mM test compound or control compound solution was spiked to 497.5 μL plasma to reach a final concentration of 1 μM or 5 μM. The final concentration of organic solvents was 0.5%. The assay was performed in duplicated. • b. The reaction samples were incubated at 37° C. at approximately 60 rpm in a water bath. • c. Aliquots of 50 μL were taken from the reaction samples at 0, 30, 60, 120, 180 and 240 minutes. The reaction was stopped by the addition of 7 volumes of cold acetonitrile containing internal standards (IS: 100 nM alprazolam, 200 nM imipramine, 200 nM labetalol and 2 μM ketoprofen). • d. All samples were vortexed for 2 minutes, followed by centrifugation at 3,220 g for 30 minutes to precipitate proteins. 100 μL of the supernatant was transferred to a new plate. The supernatant was diluted with ultrapure water according to the LC-MS signal response and peak shape.
(§3) Samples were Analyzed by LC-MS/MS. • LC system: Shimadzu • MS analysis: Triple Quad™ 6500+ from AB Inc (Canada) with an ESI interface • Column temperature: 40° C. • Column: Xselect® Hss T3 2.5μ (2.1×30 mm) coupled with preguard column • Mobile phase: 0.1% formic acid in water (A) and 0.1% formic acid in acetonitrile (B)
(§4) All calculations were carried out using Microsoft Excel. Remaining percentages of parent compounds at each time point were estimated by determining the peak area ratios from extracted ion chromatograms.
Data set [2] is described as follows: Mouse plasma stability. As to conditions: for Remaining Percentage: mouse plasma, 0 min.
Method: as §1, §2, §3, §4
Data set [3] in a line: Rat plasma stability. The following applies: for Remaining Percentage: rat plasma, 0 min.
Method: as §1, §2, §3, §4
Data set [4] can be described thus: Human plasma stability. As to conditions: for Remaining Percentage: human plasma, 0 min.
Method: as §1, §2, §3, §4
The nature of data set [5]: Human, rat and mouse liver microsomes stability (overall conclusion). Type of data set: in vitro ADME. As to conditions: 60-minute time period. As for the experimental part:
This study was performed in duplicate.
All calculations were carried out using Microsoft Excel.
All calculations were carried out using Microsoft Excel. Peak areas were determined from extracted ion chromatograms.

A short description of data set [6]: in vitro. The following applies: mouse, plasma.
Method: as §1, §2, §3, §4
The nature of data set [7]: in vitro. As to conditions: rat, microsomes.
Method: The concentrations of parent compounds in reaction systems were evaluated by LC-MS/MS for estimating the stability in pooled human, male rat and male mouse liver microsomes. The in vitro intrinsic clearances of test compounds were determined as well. Protocol
A master solution in the “Incubation Plate” containing phosphate buffer, ultra-pure H2O, MgCl2 solution and liver microsomes was made according to Table 6. The mixture was pre-warmed at 37° C. water bath for 5 minutes.
The reaction was started with the addition of 4 μL of 200 μM exemplary test compounds of the application or control compounds to each master solution to get the final concentration of 2 μM. This study was performed in duplicate.
Aliquots of 50 μL were taken from the reaction solution at 0, 15, 30, 45 and 60 minutes. The reaction solutions were stopped by the addition of 4 volumes of cold methanol with IS (100 nM alprazolam, 200 nM imipramine, 200 nM labetalol and 2 μM ketoprofen). Samples were centrifuged at 3,220 g for 40 minutes. Aliquot of 90 μL of the supernatant was mixed with 90 μL of ultra-pure H2O and then was used for LC-MS/MS analysis.
All calculations were carried out using Microsoft Excel. Peak area ratios of test compound to internal standard (listed in the below table) were determined from extracted ion chromatograms.
All calculations were carried out using Microsoft Excel. Peak areas were determined from extracted ion chromatograms. The slope value, k, was determined by linear regression of the natural logarithm of the remaining percentage of the parent drug vs. incubation time curve.
The in vitro half-life (in vitro t½) was determined from the slope value:
Conversion of the in vitro t½ (min) into the in vitro intrinsic clearance (in vitro CLint, in μL/min/mg proteins) was done using the following equation (mean of duplicate determinations):
Data set [8] in a line: in vitro. The following applies: rat, plasma.
Method: as §1, §2, §3, §4
Data set [9] can be described thus: Dog plasma stability. The following applies: for Remaining Percentage: dog plasma, 0 min.
Method: as §1, §2, §3, §4
Data set [10] in a line: in vitro. As to conditions: human.
Method: (§5) The Caco-2 cell culture medium was prepared consisting of Dulbecco's Modified Eagle's Medium (DMEM) with high glucose and L-glutamine supplemented with 10% FBS, 1× penicillin-streptomycin mixture and 1× non-essential amino acids (NEAA). • 2. The 50 μL of culture medium was added to each well of the Transwell insert. Transwell insert was removed from reservoir and 25 mL of culture medium was added. • 3. Incubated at 37° C., 5% CO2 for 1 hour. Plates were ready for cell seeding. • 4. The cells were cultivated in T-75 flasks in a cell culture incubator set at 37° C., 5% CO2, 95% relative humidity. The cells were allowed to reach 80-90% confluence before detaching and splitting. • 5. The cultivated cells were rinsed in T-75 flasks with 5 mL PBS. Aspirated off, 1.5 mL trypsin/EDTA was added, and incubated at 37° C. for approximately 5 to 10 minutes or until the cells detach and float. Trypsin/EDTA was inactivated by adding excess serum containing medium. • 6. The cell suspension was moved to a conical tube and cells were pelleted by centrifugation at 120×g for 10 minutes. • 7. The cells were resuspended in seeding medium at a density of 6.86×10^5 cells/mL. This cell concentration can be used to seed 2.40×10^5 cells/cm^2. […] Seeding and Feeding of Caco-2 Cells in Transwell Plates • 1. 50 μL of above cell suspension was added to each well of a previously prepared Transwell plate. • 2. The plate was incubated for 14-18 days. The medium was replaced every other day, beginning no sooner than 48 hours after initial plating. • 3. The procedure for medium changes was as follows. The plate was removed from incubator and placed in hood. The medium was aspirated from reservoir and each Transwell insert. 75 μL of culture medium was added to each well of Transwell inserts and 25 mL of culture medium was added to reservoir tray. The plate was returned to incubator.
(§6) When the 14-day Caco-2 cultured cells have reached confluence and are differentiated, they were ready to be used for transport studies. • 2. The medium was removed from reservoir and Transwell inserts. • 3. 75 μL of pre-warmed culture medium was added to each transwell insert and 25 mL of reservoir tray. • 4. The electrical resistance across the monolayer was measured using automated tissue resistance measuring system (World Precision Instruments, Sarasota, FL). • 5. The electrical resistance was recorded for each well. • 6. Once all wells were measured, the plate was returned to incubator. • 7. TEER of each well was calculated by the equation below. The TEER value of each well should be greater than 230 ohms-cm^2. TEER measurement (ohms)×Area of membrane (cm^2)=TEER value (ohm-cm^2)
(§7) The Caco-2 plate was removed from the incubator. Next, the monolayer was washed, and the volume exchanged two times using pre-warmed HBSS (10 mM HEPES, pH 7.4). Then the plate was incubated for 30 minutes at 37° C. • 1 mM stock solutions of control compounds and test compound(s) were prepared in DMSO and diluted with HBSS (10 mM HEPES, pH 7.4) to reach the final concentration of 5 μM. The final concentration of DMSO in the incubation system was 0.5%. Digoxin, prazosin and propranolol were used as control compounds in this assay. • 3. HBSS (10 mM HEPES, pH 7.4) was removed after 30 minutes pre-incubation. • 4. The rate of drug transport was incubated in the apical to basolateral direction. 75 μL of the control compounds and test compound was added to the Transwell insert (apical compartment). The wells were filled in the receiver plate (basolateral compartment) with 235 μL of HBSS (10 mM HEPES, pH 7.4). • 5. The rate of drug transport was determined in the basolateral to apical direction. 235 μL of the control compounds and test compound(s) was added to the receiver plate wells (basolateral compartment). The Transwell insert (apical compartment) was filled with 75 μL of HBSS (10 mM HEPES, pH 7.4). • 6. […] Incubated at 37° C. for 2 hours. • 8.
A short description of data set [11]: in vitro. The following applies: human, plasma.
Method: as §1, §2, §3, §4
A short description of data set [12]: Intestinal mucosal permeation using Caco-2 cell monolayers. The following applies: human. In general terms: Passage across Caco-2 layers is used to estimate intestinal permeability.
Method: as §5, §6, §7
For data set [13] the following is noted: patients; psilocybin-assisted psychotherapy or supportive setting; cited from earlier work.
The target in data set [14] is 5-HT2A and 5-HT2C receptors. As to conditions: compared with LSD; cited from earlier work.
Data set [15] has as its system 5-HT1A receptors. As to conditions: cited from earlier work.
Data set [16] deals with 5-HT2A. The following applies: rats, 5-HT2A or 5-HT1A antagonists; cited from earlier work.
The conditions of data set [17]: humans, controlled setting; cited from earlier work.
Data set [18] addresses human 5-HT2A receptor (Homo sapiens, UniProt P28223). The following applies: human versus rat receptor; cited from earlier work.
The subject of data set [19] is frontal cortex. As to conditions: healthy participants, 15 or 20 mg orally; cited from earlier work.
In data set [20] the test system is 5-HT2 receptor. As to conditions: rat brain, daily administration; cited from earlier work.
The subject of data set [21] is low attentive and low motivated rats. As to conditions: doses below the threshold for wet dog shake response; cited from earlier work.
Data set [22] has as its system brain's default mode network. The following applies: humans, intravenous; cited from earlier work.
[23] abbreviates: Caco-2, pH 7.4, Percentage recovery A→B, apical to basolateral.
The mark [24] stands for this setting: Caco-2, pH 7.4, Percentage recovery B→A, basolateral to apical.

human 5-HT2A receptor, sequence (P28223 whole entry): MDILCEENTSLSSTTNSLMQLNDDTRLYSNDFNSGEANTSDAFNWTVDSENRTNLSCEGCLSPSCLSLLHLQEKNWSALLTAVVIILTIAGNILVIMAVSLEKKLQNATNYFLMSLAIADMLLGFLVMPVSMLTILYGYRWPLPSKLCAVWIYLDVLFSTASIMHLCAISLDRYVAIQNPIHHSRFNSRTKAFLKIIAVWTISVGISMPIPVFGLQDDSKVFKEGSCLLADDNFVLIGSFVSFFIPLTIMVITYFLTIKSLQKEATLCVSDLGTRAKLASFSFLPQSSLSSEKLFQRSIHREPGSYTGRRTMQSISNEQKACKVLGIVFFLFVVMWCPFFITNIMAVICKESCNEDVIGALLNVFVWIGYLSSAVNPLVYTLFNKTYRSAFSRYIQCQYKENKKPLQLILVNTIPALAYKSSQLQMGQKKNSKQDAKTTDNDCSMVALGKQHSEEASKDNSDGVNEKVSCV

What is called half-life is the time needed for the level to fall by half in the phase considered. The low end stands for rapid decline, the high end for slow decline. Usually amount remaining stands for the share of the starting amount still present when the sample was taken. A high value points to less turnover. One may read the microsomal CLint as the capacity of the preparation to metabolise the compound, expressed as a volume cleared per time. A word on the Papp A→B: it is the apparent permeability from the apical to the basolateral side of a cell layer. High values mean fast passage, low ones slow passage. For orientation: Papp B→A means the apparent permeability from the basolateral to the apical side of a cell layer. A word on the efflux ratio: it is a quotient of directional permeabilities that is used to spot active efflux. Consider `CN(C)CCc1c[nH]c2cccc(OC(=O)CCCC(=O)Oc3cccc4[nH]cc(CCN(C)C)c34)c12` [Compound I-24, Bis(3-(2-(dimethylamino)ethyl)-1H-indol-4-yl) glutarate], for which, in data set [1], the half-life amounted to 19 min, the share remaining at 0.5 h turned out to be 32.9%, the fraction remaining at 1 h was 11.2% and the amount remaining at 2 h was 0%. In addition, in data set [1], the fraction remaining at 3 h worked out at 0% and the amount remaining at 4 h amounted to 0%. Besides, the “Remaining Percentage” value in [2] was 100.00%. For the same compound, the “Remaining Percentage” value in data set [3] is listed as 100.00%. Also, in data set [4], the “Remaining Percentage” value came to 100.00%. Also, in data set [5], the “metabolic stability (conclusion)” value is “rapidly metabolized”. In data set [6], this compound returned a fraction remaining at 0.5 h of 0%, a share remaining at 1 h of 0%, a fraction remaining at 2 h of 0% and an amount remaining at 3 h of 0%. The same compound registered an amount remaining at 4 h in data set [6] of 0%. For the same compound, in data set [7], the half-life at 2 µM is less than 4.51 min; the microsomal CLint at 2 µM was more than 307 µL/min/mg; the amount remaining at 1 h, 2 µM worked out at 0%. In data set [8], this compound showed a fraction remaining at 0.5 h of 0%, a share remaining at 1 h of 0%, a fraction remaining at 2 h of 0% and a fraction remaining at 3 h of 0%. This compound had a share remaining at 4 h in [8] of 0%. Moreover, the “Remaining Percentage” value in [9] was 100.00%. Besides, in data set [10] (Caco-2, pH 7.4), the apparent permeability from apical to basolateral (Papp A→B) at 2 h, 5 µM amounted to 0.27 ×10⁻⁶ cm/s; the basolateral-to-apical permeability (Papp B→A) at 2 h, 5 µM was determined as 2.47 ×10⁻⁶ cm/s; the efflux ratio at 2 h, 5 µM was 9.16. The recovery at 2 h, 5 µM in data set [10] (setting [23]) worked out at 112%. The compound further had a recovery at 2 h, 5 µM in data set [10] (setting [24]) of 105%. In data set [11], the share remaining at 0.5 h was 0%, the share remaining at 1 h is 0%, the fraction remaining at 2 h came to 0% and the share remaining at 3 h stood at 0%. For the same compound, the fraction remaining at 4 h in data set [11] amounted to 0%.
As for `CC(C)N(CCc1c[nH]c2cccc(OC(=O)CCCC(=O)Oc3cccc4[nH]cc(CCN(C(C)C)C(C)C)c34)c12)C(C)C` [Compound I-37, Bis(3-(2-(diisopropylamino)ethyl)-1H-indol-4-yl) glutarate dihydrochloride], the “Remaining Percentage” value in data set [2] came out at 100.00%. In data set [2] (mouse, plasma), the fraction remaining at 0.5 h amounted to 0%, the fraction remaining at 1 h was 0%, the fraction remaining at 2 h was found to be 0% and the amount remaining at 3 h was 0%. The compound further registered a fraction remaining at 4 h in [2] (mouse, plasma) of 0%. Also, in [12] (Caco-2, pH 7.4), the Papp A→B at 2 h, 5 µM stood at 0.54 ×10⁻⁶ cm/s; the apparent permeability from basolateral to apical (Papp B→A) at 2 h, 5 µM was determined as 11.3 ×10⁻⁶ cm/s; the efflux ratio at 2 h, 5 µM is 21. This compound also gave a recovery at 2 h, 5 µM in data set [12] (setting [23]) of 74.9%. This compound also registered a recovery at 2 h, 5 µM in data set [12] (setting [24]) of 107%. The “Remaining Percentage” value in data set [3] was found to be 100.00%. Also, in data set [3] (rat, plasma), the share remaining at 0.5 h was determined as 0%, the share remaining at 1 h stood at 0%, the share remaining at 2 h stood at 0% and the fraction remaining at 3 h came out at 0%. Further, in data set [3] (rat, plasma), the fraction remaining at 4 h was 0%. Further, the “Remaining Percentage” value in data set [4] was 100.00%. In data set [4] (human, plasma), this compound had a fraction remaining at 0.5 h of 0%, a share remaining at 1 h of 0%, an amount remaining at 2 h of 0% and a fraction remaining at 3 h of 0%. The compound further yielded an amount remaining at 4 h in data set [4] (human, plasma) of 0%. The “metabolic stability (conclusion)” value in data set [5] was “rapidly metabolized”. In addition, in [7], the half-life at 2 µM is less than 4.51 min; the intrinsic clearance (microsomal CLint) at 2 µM is more than 307 µL/min/mg; the share remaining at 1 h, 2 µM is 0%. For the same compound, in [9], the “Remaining Percentage” value was 100.00%. Further, in data set [9] (dog, plasma), the half-life is 115 min, the fraction remaining at 0.5 h amounted to 82.6%, the fraction remaining at 1 h worked out at 70.5% and the fraction remaining at 2 h amounted to 50.5%. In [9] (dog, plasma), this compound displayed an amount remaining at 3 h of 31.6% and an amount remaining at 4 h of 24.2%.
For the compound `CN(C)CCc1c[nH]c2cccc(O)c12` [Psilocin, 4-hydroxy-N,N-dimethyltryptamine, reference compound], the amount remaining at 1 h, 2 µM in [7] was determined as 62.7%. For the same compound, in data set [10] (Caco-2, pH 7.4), the apparent permeability from apical to basolateral (Papp A→B) at 2 h, 5 µM stood at 24.6 ×10⁻⁶ cm/s and the Papp B→A at 2 h, 5 µM is 18.7 ×10⁻⁶ cm/s.
`CN(C)CCc1c[nH]c2cccc(OP(=O)(O)O)c12` [Psilocybin]: the “relief of depression and anxiety” value in data set [13] was “unprecedented positive relief of anxiety and depression; also recorded: significant and sustained anti-depressant and anxiolytic effects”. For the same compound, in [14], the “K(i)” value is “lower K(i) for both 5-HT2A and 5-HT2C receptors than LSD”. Moreover, the “activation of 5-HT1A receptors” value in data set [15] is on record as “activates 5-HT1A receptors”. Also, the drug discrimination in data set [16] was 5-HT2A antagonists, but not 5-HT1A antagonists, prevented rats from recognizing psilocybin. For the same compound, the adverse effect result in data set [17] is reported as “transient, delayed headache”. Further, the “affinity for 5-HT2A receptor” value in data set [18] was “stronger affinity for the human 5-HT2A receptor than for the rat receptor”. The “absolute metabolic rate of glucose” value in data set [19] is “increased absolute metabolic rate of glucose in frontal, and to a lesser extent in other, cortical regions as well as in striatal and limbic subcortical structures”. Further, the 5-HT2 receptor density result in data set [20] was “reduce 5-HT2 receptor density in rat brain”. For the same compound, the task performance entry in [21] was “improved performance on the 5-choice serial reaction time and progressive ratio tasks”. The oscillatory power entry in data set [22] was “decreases in oscillatory power in areas of the brain's default mode network”.
